Measurements taken from patent US11723907B2, “Anti-aging compounds” (THE CLEVELAND CLINIC FOUNDATION, priority 2017, dated 2023).

Assays:
[1] = system: HSC; test: Competitive repopulation assay, CD45.1/2 mouse model; type: in vivo; details: CD45.2 mice, one month in drinking water, ~2.0 mg/kg
Text: FIGS. 2A-2G provide graphs and images showing N2N1 and VA support HSC/progenitors populations under pressure of differentiation and tissue culture stress in vitro and in vivo. General schema of CFU (A) and LTC-IC assays (B). […] Representative result of three NBM is shown. (D) The morphology of cells at the end of 1st part of LTC-IC assay is shown. The total number of cells at this step of experiment was always larger in the samples treated with experimental drugs. (E) Treatment of mice with N2N1 promotes maintenance of normal HSC in vivo. Competitive repopulation assay performed on CD45.2 mice treated with N2N1. Summary of four animals, three hematopoietic tissues. […] Representative result of three patients is shown.
The potential positive impact of identified pro-survival catalysts on viability and propagation of HSC was evaluated in competitive repopulation assay based on CD45.1/2 mouse model, a “gold standard” for HSC performance.

[2] = system: cytochrome c; test: Enzymatic NAD(P)H oxidation / cytochrome c reduction catalyzed by N2N1; type: biochemical
Procedure: FIGS. 5A-5C provide graphs and schemes relating to the N2N1 mechanism of action. […] No specific substrate was added into reaction mix, therefore, it was concluded that reaction was driven by slow reduction of molecular oxygen dissolved into reaction buffer. The hypothetical reaction equation is shown below reaction plots. (B) The proposed molecular mechanism of possible substrate reduction catalyzed by N2N1. (C) Addition of peroxide or cytochrome c into reaction allowed us to identify cytochrome c as the most preferable substrate for the N2N1 driven enzymatic reaction. […] It was interesting to notice that addition of cytochrome c to non-enzymatic reaction reduced the reaction rate. […] The hypothetical reaction equation is show below the reaction plots.
FIGS. 6A-6B provide graphs showing the enzymatic reduction of cytochrome C catalyzed by N2N1 can utilize both NADH and NADPH. (A) The enzymatic electrons transfer from NADH to cytochrome c driven by N2N1 was monitored by decrease in absorption at 340 nm (NADH) and increase in absorption at 550 nm (cytochrome c). The absorbance spectrum was screened at the end of the reaction (˜1 hour). The hypothetical reaction equation is shown below the reaction plots. (B) The enzymatic electrons transfer from NADPH to cytochrome c driven by N2N1 was monitored by decrease in absorption at 340 nm (NADPH) and increase in absorption at 550 nm (cytochrome c). The hypothetical reaction equation is shown below the reaction plots.
To evaluate possible participation of mitochondrial NADH oxidoreductases, in particular Complex I and III, the […] was run in the presence of rotenone or antimycin A (2 μM). The acquired data allowed us to specify the most probable candidate that carry out the transfer electrons from NAD(P)H to cytochrome C driven by N2N1. The NQO1 protein would be the most likely candidate, while proteins from CYB5 family still cannot be ruled out.
Bonkowski et al., Nature reviews. Molecular cell biology 17, 679-690 (2016); Orr et al., Antioxidants & redox signaling 19, 788-803 (2013). It quite possible, that NAD(P)H oxidation catalyzed by N2N1 is performed by NADH:cytochrome b5 reductases (CYB5 . . . ) or NAD(P)H:quinone oxidoreductase (NQO1) reductase (FIG. 3C). The inventors found by RNA-seq analysis that fourteen genes from CYB5 family were expressed in normal fibroblast. NQO1 was also detected at the high level of expression. These reductases connect aerobic metabolism with aging by directed electron flow from NAD(P)H to oxygen, cytochrome C, and peroxide. Jimenez-Hidalgo et al., Aging cell 8, 140-151 (2009). […]

[3] = system: global protein disulfide bonds; test: Global protein disulfide bonds (Elman's reagent, biotin-switch assay); type: cell-based; details: Elman's reagent or biotin-switch assay
Text: FIGS. 3A-3C provide graphs and schemes showing the preliminary data that directed the plan to find the mechanism of action of identified anti-aging compounds. (A) Substantial decrease in oxidized sulfhydryl groups were detected after several days of treatment with VA. […] The inventors decided to check if VA can participate in catalytic reactions performed by the enzymes involved in generation of reductive potential or its utilization by transferring the electrons to oxidized disulfide bonds t. […] In particular, catalytic reduction of molecular oxygen and cytochrome c was observed. Therefore, the inventors decided to take into account the most prominent enzymes that were noted to be involved into initiation or prevention aging-like traits.
Based on results obtained on tissue cultured cells (increased RLS) and an increase in the numbers of HSC surrogate cells (LTC-IC or CFU), the inventors set their future goal to develop a novel pharmacological treatment for AA patients and potentially for other BMF. […] The only persistent effect of VA was considerable reduction in global protein disulfide bonds (up to 30%) detected by Elman's reagent or direct labelling of reduced sulfhydryl groups with biotin-switch assay (FIG. 3A). […]

Compound	HSC number / repopulation capacity [1]	catalysis of enzymatic NADH and NADPH conversion ([2]; 1 μM)	time to complete reduction of cytochrome c ([2]; 0.5 mM cytochrome c, NADH or NADPH) [min]	reduction in global protein disulfide bonds [3]
O=C1/C(=N/O)C=Cc2ccccc21 [N2N1, 1-naphthoquinone-2-monoxime]	increased number of HSC or/and increased repopulation capacity	actively catalyze	10 to 15	
O=C1NC(=O)C(=NO)C(=O)N1 [VA, 2,4,5,6(1H,3H)-pyrimidine-tetrone 5-oxime]				up to 30%
